Results as given in BindingDB's records for doi:10.1021/jm00126a022 (University of South Alabama, 1989).

Molecular target: GAR formyltransferase (Lactobacillus casei)
Test: Inhibition of the GAR formyl transferase in lactobacillus casei

CC(Cc1ccc(C(=O)NC(CCC(=O)O)C(=O)O)cc1)Cc1cnc2nc(N)[nH]c(=O)c2n1 (stereo unspecified)
IC50: > 20 µM
